Experimental data as given in ChEMBL document CHEMBL1150976, “The selectivity of protein kinase inhibitors: a further update” (Biochem J, 2007).

Experiments:
[1] = molecular target: Dual specificity mitogen-activated protein kinase kinase 1 (Homo sapiens) (UniProt Q02750); assay: Percentage MKK1 activity remaining in the presence of 3uM inhibitor
[2] = molecular target: Serine/threonine-protein kinase Nek7 (Homo sapiens) (UniProt Q8TDX7); assay: Percentage NEK7 activity remaining in the presence of 3uM inhibitor
Serine/threonine-protein kinase Nek7 (Homo sapiens), sequence (Q8TDX7 whole entry, looked up): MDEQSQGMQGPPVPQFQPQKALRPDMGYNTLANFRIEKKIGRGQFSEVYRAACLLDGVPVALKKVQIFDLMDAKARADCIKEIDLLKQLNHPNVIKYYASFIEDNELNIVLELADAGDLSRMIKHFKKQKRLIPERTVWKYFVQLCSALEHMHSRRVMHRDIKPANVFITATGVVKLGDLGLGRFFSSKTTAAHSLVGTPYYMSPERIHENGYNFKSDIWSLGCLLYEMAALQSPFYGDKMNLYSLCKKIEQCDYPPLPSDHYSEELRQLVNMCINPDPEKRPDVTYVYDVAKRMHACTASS

[3] = molecular target: MAP kinase-activated protein kinase 3 (Homo sapiens) (UniProt Q16644); assay: Percentage MAPKAPK3 activity remaining in the presence of 3uM inhibitor
MAP kinase-activated protein kinase 3 (Homo sapiens), sequence (Q16644 whole entry, looked up): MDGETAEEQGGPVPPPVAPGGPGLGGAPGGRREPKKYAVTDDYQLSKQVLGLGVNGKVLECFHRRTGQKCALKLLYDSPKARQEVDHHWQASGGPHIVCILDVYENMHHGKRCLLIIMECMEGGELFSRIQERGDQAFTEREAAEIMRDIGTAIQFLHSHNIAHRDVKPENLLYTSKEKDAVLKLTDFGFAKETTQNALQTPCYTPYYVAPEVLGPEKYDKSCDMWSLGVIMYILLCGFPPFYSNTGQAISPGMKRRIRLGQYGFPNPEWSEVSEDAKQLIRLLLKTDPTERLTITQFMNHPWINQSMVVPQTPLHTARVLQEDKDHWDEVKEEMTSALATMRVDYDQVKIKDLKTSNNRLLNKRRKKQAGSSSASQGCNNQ

[4] = molecular target: T1, Mitogen-activated protein kinase 15 (Homo sapiens) (UniProt Q8TD08); assay: Percentage ERK8 activity remaining in the presence of 3uM inhibitor
T1 sequence (whole entry): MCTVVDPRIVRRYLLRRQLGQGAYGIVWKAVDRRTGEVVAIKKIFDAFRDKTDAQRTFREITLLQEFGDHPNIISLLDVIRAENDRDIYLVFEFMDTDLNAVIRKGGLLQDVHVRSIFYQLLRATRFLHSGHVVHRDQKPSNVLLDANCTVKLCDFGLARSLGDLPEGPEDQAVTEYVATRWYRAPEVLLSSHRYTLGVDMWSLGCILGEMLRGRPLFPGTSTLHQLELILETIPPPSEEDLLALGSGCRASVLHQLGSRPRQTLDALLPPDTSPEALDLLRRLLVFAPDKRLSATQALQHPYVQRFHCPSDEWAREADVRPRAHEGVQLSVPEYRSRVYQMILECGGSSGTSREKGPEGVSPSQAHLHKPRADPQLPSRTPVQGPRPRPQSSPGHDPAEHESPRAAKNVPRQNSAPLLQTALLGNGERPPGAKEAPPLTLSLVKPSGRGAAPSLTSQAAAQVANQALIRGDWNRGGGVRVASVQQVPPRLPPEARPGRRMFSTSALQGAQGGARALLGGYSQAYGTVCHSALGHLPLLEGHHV

[5] = molecular target: SRSF protein kinase 1 (Homo sapiens) (UniProt Q96SB4); assay: Percentage SRPK1 activity remaining in the presence of 3uM inhibitor
SRSF protein kinase 1 (Homo sapiens), sequence (Q96SB4 whole entry): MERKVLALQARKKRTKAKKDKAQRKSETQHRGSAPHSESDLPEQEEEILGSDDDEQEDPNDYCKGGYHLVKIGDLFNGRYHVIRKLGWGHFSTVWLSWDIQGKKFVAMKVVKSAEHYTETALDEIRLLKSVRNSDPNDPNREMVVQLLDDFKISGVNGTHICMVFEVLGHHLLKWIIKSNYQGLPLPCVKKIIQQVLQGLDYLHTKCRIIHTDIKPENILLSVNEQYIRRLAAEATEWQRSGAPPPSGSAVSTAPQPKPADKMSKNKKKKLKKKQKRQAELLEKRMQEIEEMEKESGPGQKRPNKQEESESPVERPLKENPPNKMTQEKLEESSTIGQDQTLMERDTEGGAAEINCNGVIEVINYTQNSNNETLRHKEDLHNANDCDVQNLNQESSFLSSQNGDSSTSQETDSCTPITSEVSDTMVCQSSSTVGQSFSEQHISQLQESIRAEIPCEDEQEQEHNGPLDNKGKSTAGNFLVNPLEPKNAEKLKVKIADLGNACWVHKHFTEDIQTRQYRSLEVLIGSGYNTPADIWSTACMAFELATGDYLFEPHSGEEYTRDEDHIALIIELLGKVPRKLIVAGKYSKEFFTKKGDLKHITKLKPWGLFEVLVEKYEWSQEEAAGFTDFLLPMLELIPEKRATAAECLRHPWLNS

[6] = molecular target: MAP kinase-interacting serine/threonine-protein kinase 2 (Homo sapiens) (UniProt Q9HBH9); assay: Percentage MNK2 activity remaining in the presence of 3uM inhibitor
MAP kinase-interacting serine/threonine-protein kinase 2 (Homo sapiens), sequence (Q9HBH9 whole entry, looked up): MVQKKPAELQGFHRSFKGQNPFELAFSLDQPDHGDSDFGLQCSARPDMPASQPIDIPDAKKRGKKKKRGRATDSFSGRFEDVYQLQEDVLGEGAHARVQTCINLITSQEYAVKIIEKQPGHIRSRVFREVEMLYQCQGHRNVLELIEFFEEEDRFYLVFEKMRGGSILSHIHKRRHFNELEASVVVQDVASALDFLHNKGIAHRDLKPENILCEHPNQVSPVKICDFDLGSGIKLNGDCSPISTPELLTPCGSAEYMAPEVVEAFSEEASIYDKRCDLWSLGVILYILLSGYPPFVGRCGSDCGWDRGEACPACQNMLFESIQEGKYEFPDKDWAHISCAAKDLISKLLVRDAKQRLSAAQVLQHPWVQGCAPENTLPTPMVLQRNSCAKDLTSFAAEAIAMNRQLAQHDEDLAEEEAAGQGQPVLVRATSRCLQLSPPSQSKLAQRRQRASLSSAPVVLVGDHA

[7] = molecular target: T2, Serine/threonine-protein kinase BRSK2 (Homo sapiens) (UniProt Q8IWQ3); assay: Percentage BRSK2 activity remaining in the presence of 3uM inhibitor
T2 sequence (whole entry): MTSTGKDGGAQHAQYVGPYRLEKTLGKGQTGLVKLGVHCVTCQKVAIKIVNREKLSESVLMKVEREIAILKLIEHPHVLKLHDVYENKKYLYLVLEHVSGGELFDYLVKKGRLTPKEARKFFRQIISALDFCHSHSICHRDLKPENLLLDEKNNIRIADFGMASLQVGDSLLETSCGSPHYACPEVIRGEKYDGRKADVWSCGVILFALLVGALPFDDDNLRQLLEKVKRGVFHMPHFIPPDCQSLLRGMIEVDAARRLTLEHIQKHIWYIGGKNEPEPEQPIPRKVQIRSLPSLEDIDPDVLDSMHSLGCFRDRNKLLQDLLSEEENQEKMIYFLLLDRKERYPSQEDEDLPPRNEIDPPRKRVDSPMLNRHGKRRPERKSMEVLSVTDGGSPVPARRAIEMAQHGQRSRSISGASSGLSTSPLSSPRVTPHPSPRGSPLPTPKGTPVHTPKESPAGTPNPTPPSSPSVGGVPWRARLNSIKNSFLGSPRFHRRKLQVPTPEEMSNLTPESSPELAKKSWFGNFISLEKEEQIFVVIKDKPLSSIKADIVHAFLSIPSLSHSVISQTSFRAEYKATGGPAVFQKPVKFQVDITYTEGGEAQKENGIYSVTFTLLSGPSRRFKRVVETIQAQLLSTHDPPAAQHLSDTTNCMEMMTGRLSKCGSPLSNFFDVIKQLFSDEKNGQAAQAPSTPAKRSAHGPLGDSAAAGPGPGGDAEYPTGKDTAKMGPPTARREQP

[8] = molecular target: Casein kinase I isoform delta (Homo sapiens, UniProt P48730); assay: Percentage CK1delta activity remaining in the presence of 2uM inhibitor
Casein kinase I isoform delta, sequence (P48730 whole entry, looked up, canonical isoform): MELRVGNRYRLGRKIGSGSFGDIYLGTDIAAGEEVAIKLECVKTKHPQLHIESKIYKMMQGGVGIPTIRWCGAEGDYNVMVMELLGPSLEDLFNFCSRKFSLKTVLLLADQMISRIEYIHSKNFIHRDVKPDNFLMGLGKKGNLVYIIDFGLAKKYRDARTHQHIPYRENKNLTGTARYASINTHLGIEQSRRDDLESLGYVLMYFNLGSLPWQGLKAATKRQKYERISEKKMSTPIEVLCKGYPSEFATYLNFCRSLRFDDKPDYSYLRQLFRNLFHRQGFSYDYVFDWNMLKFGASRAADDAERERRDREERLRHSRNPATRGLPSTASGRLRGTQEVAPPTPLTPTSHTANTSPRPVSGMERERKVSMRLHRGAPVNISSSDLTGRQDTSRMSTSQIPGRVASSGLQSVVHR

[9] = molecular target: Proto-oncogene tyrosine-protein kinase LCK (Mus musculus) (UniProt P06240); assay: Percentage Lck activity remaining in the presence of 2uM inhibitor
Proto-oncogene tyrosine-protein kinase LCK (Mus musculus), sequence (P06240 2-509 limits assumed): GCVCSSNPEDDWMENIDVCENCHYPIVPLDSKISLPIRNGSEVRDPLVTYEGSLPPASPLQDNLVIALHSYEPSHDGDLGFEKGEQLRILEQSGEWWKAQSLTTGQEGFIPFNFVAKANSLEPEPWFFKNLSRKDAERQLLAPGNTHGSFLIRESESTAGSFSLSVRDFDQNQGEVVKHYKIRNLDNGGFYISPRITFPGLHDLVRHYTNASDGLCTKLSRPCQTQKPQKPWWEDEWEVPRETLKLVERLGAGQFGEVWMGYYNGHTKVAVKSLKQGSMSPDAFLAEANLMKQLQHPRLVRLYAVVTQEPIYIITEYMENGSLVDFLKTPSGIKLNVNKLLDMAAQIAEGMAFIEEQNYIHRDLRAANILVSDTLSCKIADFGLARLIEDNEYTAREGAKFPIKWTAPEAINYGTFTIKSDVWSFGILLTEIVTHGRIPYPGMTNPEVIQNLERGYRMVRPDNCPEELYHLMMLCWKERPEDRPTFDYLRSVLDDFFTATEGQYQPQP

[10] = molecular target: T3, Inhibitor of nuclear factor kappa-B kinase subunit beta (Homo sapiens) (UniProt O14920); assay: Percentage IKK-beta activity remaining in the presence of 2uM inhibitor
T3 sequence (whole entry): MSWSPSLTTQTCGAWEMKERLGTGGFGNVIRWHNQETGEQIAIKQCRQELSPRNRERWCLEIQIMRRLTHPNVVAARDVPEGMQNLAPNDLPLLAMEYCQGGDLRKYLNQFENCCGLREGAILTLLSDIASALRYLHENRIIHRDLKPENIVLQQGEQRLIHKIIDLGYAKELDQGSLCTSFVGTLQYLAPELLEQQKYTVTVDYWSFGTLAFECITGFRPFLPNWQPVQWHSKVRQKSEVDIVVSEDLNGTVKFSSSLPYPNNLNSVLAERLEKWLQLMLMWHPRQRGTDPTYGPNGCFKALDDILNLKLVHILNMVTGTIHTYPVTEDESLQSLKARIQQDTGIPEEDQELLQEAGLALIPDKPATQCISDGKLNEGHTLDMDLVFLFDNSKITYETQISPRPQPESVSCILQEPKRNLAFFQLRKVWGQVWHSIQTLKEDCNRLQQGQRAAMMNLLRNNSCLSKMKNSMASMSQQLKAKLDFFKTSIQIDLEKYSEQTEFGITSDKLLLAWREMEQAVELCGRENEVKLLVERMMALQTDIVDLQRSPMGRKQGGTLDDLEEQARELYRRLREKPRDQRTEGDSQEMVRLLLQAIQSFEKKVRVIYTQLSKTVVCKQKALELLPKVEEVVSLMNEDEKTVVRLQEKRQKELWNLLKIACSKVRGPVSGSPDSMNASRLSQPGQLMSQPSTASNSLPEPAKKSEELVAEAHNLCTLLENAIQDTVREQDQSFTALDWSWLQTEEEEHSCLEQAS

[11] = molecular target: Mitogen-activated protein kinase 9 (Homo sapiens, UniProt P45984); assay: Percentage JNK2 activity remaining in the presence of 25uM inhibitor
Mitogen-activated protein kinase 9, sequence (P45984 whole entry, looked up): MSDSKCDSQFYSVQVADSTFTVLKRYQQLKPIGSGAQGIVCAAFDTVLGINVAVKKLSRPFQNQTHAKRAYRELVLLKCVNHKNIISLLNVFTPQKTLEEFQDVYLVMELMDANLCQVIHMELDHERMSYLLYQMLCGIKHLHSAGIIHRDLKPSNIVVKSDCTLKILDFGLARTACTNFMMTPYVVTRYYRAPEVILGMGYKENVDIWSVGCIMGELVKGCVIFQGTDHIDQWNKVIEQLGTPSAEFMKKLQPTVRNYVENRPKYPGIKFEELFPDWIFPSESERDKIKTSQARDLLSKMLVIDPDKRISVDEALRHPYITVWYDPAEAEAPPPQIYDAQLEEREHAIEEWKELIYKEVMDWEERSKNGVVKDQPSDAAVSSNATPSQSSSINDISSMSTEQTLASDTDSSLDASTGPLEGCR

Dual specificity mitogen-activated protein kinase kinase 1 (Homo sapiens), sequence (Q02750 whole entry): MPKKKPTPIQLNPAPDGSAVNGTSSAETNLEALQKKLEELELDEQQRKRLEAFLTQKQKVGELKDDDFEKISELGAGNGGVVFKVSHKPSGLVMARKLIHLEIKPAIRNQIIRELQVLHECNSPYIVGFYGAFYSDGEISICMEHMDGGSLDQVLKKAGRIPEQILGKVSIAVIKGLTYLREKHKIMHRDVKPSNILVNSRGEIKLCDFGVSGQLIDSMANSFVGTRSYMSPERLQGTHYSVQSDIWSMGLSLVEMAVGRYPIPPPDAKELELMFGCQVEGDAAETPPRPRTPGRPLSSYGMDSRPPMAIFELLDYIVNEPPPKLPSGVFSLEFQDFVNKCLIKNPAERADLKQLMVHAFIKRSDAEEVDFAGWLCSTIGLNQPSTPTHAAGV

Compound `Cc1ccc(-c2c(C(=O)CF)n(CCCO)c3ncnc(N)c23)cc1` has an Activity [1] of 80%, an Activity [2] of 92% and an Activity [3] of 92%. It also gave an Activity [4] of 58%, an Activity [5] of 85% and an Activity [6] of 65%. It also gave an Activity [7] of 53%.

Compound `Cn1cc(C2=C(c3ccc(Cl)cc3Cl)C(=O)NC2=O)c2ccccc21` has an Activity [8] of 78%, an Activity [9] of 77% and an Activity [10] of 99%.

Compound `NCCNS(=O)(=O)c1ccc(Cl)c2ccncc12` has an Activity [11] of 87%.
